Source: patent US20240402182A1, “PEPTIDE TARGETING FUSOBACTERIA, COMPOSITION FOR DIAGNOSING CANCER COMPRISING SAME, AND DRUG DELIVERY COMPOSITION” (INDUSTRY-ACADEMIC COOPERATION FOUNDATION, YONSEI UNIVERSITY, priority 2021, published 2024)

Test system: mixture of 9 types of Fusobacteria
Test: ELISA binding affinity of selected M13 bacteriophage clones to Fusobacteria (FIG. 4D)
Design: species or system Fusobacterium nucleatum
Conditions: M13 bacteriophage displaying the peptide, plate coated with Fusobacteria, M13-HRP antibody, TMB, absorbance at OD450
Procedure: A mixture of 9 types of Fusobacteria or each of the 9 types of Fusobacteria was coated on a plate, and a blocking reaction was performed using a 5% BSA solution to prevent non-specific binding. Each selected M13 bacteriophage was reacted on the plate coated with Fusobacteria. The plate was washed three times with phosphate buffer solution containing 0.1% Tween 20, and then reacted with an M13-HRP antibody. The reaction plate was washed three times with phosphate buffer solution containing 0.1% Tween 20 and reacted using a TMB color solution. The reaction was stopped with 1 M sulfuric acid (H2SO4), and the absorbance was measured at OD450 to compare the binding affinity.

In the case of PPWLADI [SEQ ID NO: 81], the “binding affinity to Fusobacteria (ELISA)” value is reported as “highest binding affinity”.
